Values quoted from earlier work in US20220023282A1 (priority 2018, published 2022).

Tested on: Mycobacterium tuberculosis isolates
Details: variety of Mycobacterium tuberculosis isolates, regardless of resistance to other anti-TB drugs; cited from earlier work

COc1nc2ccc(Br)cc2cc1[C@@H](c1ccccc1)[C@@](O)(CCN(C)C)c1cccc2ccccc12 [bedaquiline, (1R,2S)-1-(6-bromo-2-methoxyquinolin-3-yl)-4-(dimethylamino)-2-(naphthalen-1-yl)-1-phenylbutan-2-ol]
Minimum Inhibitory Concentration (MIC) 99: 0.01 to 0.1 µg/mL
